The values below come from patent US20230081426A1, “COMPOUNDS AND METHODS FOR KRAS MODULATION AND INDICATIONS THEREFOR” (Plexxikon Inc., priority 2020, published 2023).

In assay [1] the target is T1, G12D-mutant human KRAS (amino acid residues 1-188) (Homo sapiens, UniProt P01116, G12D).
T1 construct: G12D or G12C-mutant human KRAS (amino acid residues 1-188) with FLAG tag; made in house; host or cells: E. coli
Description: KRAS Binding Disruption Assay (AlphaScreen; biotinylated KRpep-2d analogue or RAF1-RBD), G12D. To be noted: KRAS G12D; geometric mean; read-out: KRAS GMean IC50 (uM) MUTATION: G12D. The essentials: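 AlphaScreen readout: signal falls as compound displaces biotinylated KRpep-2d analogue or RAF1-RBD from mutant KRAS. Both partners at 5-20 nM, 1 h binding at 25° C, then 10 μg/mL Anti-Flag acceptor and streptavidin donor beads for 1 h. IC50 by nonlinear regression of % inhibition.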

The target in assay [2] is T2, G12V-mutant human KRAS (amino acid residues 1-188) (Homo sapiens, UniProt P01116, G12V).
T2 construct: G12V-mutant human KRAS (amino acid residues 1-188) with FLAG tag was purified from E. coli; made in house; host or cells: E. coli
Description: KRAS Binding Competition Assay (AlphaScreen; biotinylated KRpep-2d analogue), G12V. To be noted: geometric mean, read-out: KRAS GMean IC50 (uM) MUTATION: G12V.

Regarding `COc1ccc2c(-c3c(F)cc4c(N5C[C@H]6CC[C@@H](C5)N6)nc(OC[C@@H]5CCCN5C)nc4c3F)c[nH]c2c1` [P-0473, 4-((1R,5S)-3,8-diazabicyclo[3.2.1]octan-3-yl)-6,8-difluoro-7-(6-methoxy-1H-indol-3-yl)-2-(((S)-1-methylpyrrolidin-2-yl)methoxy)quinazoline], the IC50 in assay [1] and in assay [2] was 100 to 1000 µM in each case.
For the compound `Cc1c(-c2c(F)cc3c(N4C[C@H]5CC[C@@H](C4)N5)nc(OC[C@@H]4CCCN4C)nc3c2F)cccc1C(F)(F)F` [P-0474, 4-((1R,5S)-3,8-diazabicyclo[3.2.1]octan-3-yl)-6,8-difluoro-7-(2-methyl-3-(trifluoromethyl)phenyl)-2-(((S)-1-methylpyrrolidin-2-yl)methoxy)quinazoline], the IC50 was in the range of 0.0001 to 10 µM in assay [1] and 10 to 100 µM in assay [2].
Turning to `CN1CCC[C@H]1COc1nc(N2C[C@H]3CC[C@@H](C2)N3CC(=O)Nc2ccccn2)c2ccc(-c3cc(O)cc4ccccc34)c(F)c2n1` [P-0475, 2-((1R,5S)-3-(8-fluoro-7-(3-hydroxynaphthalen-1-yl)-2-(((S)-1-methylpyrrolidin-2-yl)methoxy)quinazolin-4-yl)-3,8-diazabicyclo[3.2.1]octan-8-yl)-N-(pyridin-2-yl)acetamide], the IC50 lay within 0.0001 to 10 µM in assay [1] and 10 to 100 µM in assay [2].
`Fc1c(-c2c(C(F)(F)F)ccc3[nH]ncc23)ccc2c(N3C[C@H]4CC[C@@H](C3)N4)nc(OCC34CCCN3CCC4)nc12` [P-0506, 4-((1R,5S)-3,8-diazabicyclo[3.2.1]octan-3-yl)-8-fluoro-2-((tetrahydro-1H-pyrrolizin-7a(5H)-yl)methoxy)-7-(5-(trifluoromethyl)-1H-indazol-4-yl)quinazoline]: the results for the IC50 in assay [1] and in assay [2] were 0.0001 to 10 µM and 10 to 100 µM, respectively.
The like results for `CCc1cccc2[nH]cc(-c3ccc4c(N5C[C@H]6CC[C@@H](C5)N6)nc(OC[C@@]56CCCN5C[C@H](F)C6)nc4c3F)c12` [P-0511, 4-((1R,5S)-3,8-diazabicyclo[3.2.1]octan-3-yl)-7-(4-ethyl-1H-indol-3-yl)-8-fluoro-2-(((2R,7aS)-2-fluorotetrahydro-1H-pyrrolizin-7a(5H)-yl)methoxy)quinazoline] were, in that order, 0.0001 to 10 µM and 0.0001 to 10 µM.
On the same counts, the results for `Nc1cc(-c2c(F)cc3c(N4C[C@H]5CC[C@@H](C4)N5)nc(OCC45CCCN4CCC5)nc3c2F)ccc1Cl` [P-0609, 5-(4-((1R,5S)-3,8-diazabicyclo[3.2.1]octan-3-yl)-6,8-difluoro-2-((tetrahydro-1H-pyrrolizin-7a(5H)-yl)methoxy)quinazolin-7-yl)-2-chloroaniline] are 10 to 100 µM and 100 to 1000 µM.
With `Fc1c(-c2c[nH]c3ccc(C(F)(F)F)cc23)ccc2c(N3C[C@H]4CC[C@@H](C3)N4)nc(OCC34CCCN3CCC4)nc12` [P-0610, 4-((1R,5S)-3,8-diazabicyclo[3.2.1]octan-3-yl)-8-fluoro-2-((tetrahydro-1H-pyrrolizin-7a(5H)-yl)methoxy)-7-(5-(trifluoromethyl)-1H-indol-3-yl)quinazoline], the IC50 in assay [1] was in the range of 0.0001 to 10 µM; in assay [2] it was 100 to 1000 µM.
The like results for `CC(C)(C)c1ccc2[nH]cc(-c3ccc4c(N5C[C@H]6CC[C@@H](C5)N6)nc(OCC56CCCN5CCC6)nc4c3F)c2c1` [P-0611, 4-((1R,5S)-3,8-diazabicyclo[3.2.1]octan-3-yl)-7-(5-(tert-butyl)-1H-indol-3-yl)-8-fluoro-2-((tetrahydro-1H-pyrrolizin-7a(5H)-yl)methoxy)quinazoline] were, in that order, 10 to 100 µM and 100 to 1000 µM.
The like results for `OCC1(COc2nc(N3C[C@H]4CC[C@@H](C3)N4)c3ccc(-c4cc(O)cc5ccccc45)c(F)c3n2)CCOCC1` [P-0612, 4-(4-((1R,5S)-3,8-diazabicyclo[3.2.1]octan-3-yl)-8-fluoro-2-((4-(hydroxymethyl)tetrahydro-2H-pyran-4-yl)methoxy)quinazolin-7-yl)naphthalen-2-ol] were, in that order, 0.0001 to 10 µM and 10 to 100 µM.
For the compound `OCC1(COc2nc(N3C[C@H]4CC[C@@H](C3)N4)c3ccc(-c4cc(O)cc5ccccc45)c(F)c3n2)COC1` [P-0613, 4-(4-((1R,5S)-3,8-diazabicyclo[3.2.1]octan-3-yl)-8-fluoro-2-((3-(hydroxymethyl)oxetan-3-yl)methoxy)quinazolin-7-yl)naphthalen-2-ol], the values for the IC50 in assay [1] and in assay [2] were 0.0001 to 10 µM and 10 to 100 µM, respectively.
As to `OCC1(COc2nc(N3C[C@H]4CC[C@@H](C3)N4)c3ccc(-c4cc(O)cc5ccccc45)c(F)c3n2)CC1` [P-0614, 4-(4-((1R,5S)-3,8-diazabicyclo[3.2.1]octan-3-yl)-8-fluoro-2-((l (hydroxymethyl)cyclopropyl)methoxy)quinazolin-7-yl)naphthalen-2-ol], the values for the IC50 in assay [1] and in assay [2] were 0.0001 to 10 µM and 10 to 100 µM, respectively.
On the same counts, the results for `N#CCc1cccc2[nH]cc(-c3ccc4c(N5C[C@H]6CC[C@@H](C5)N6)nc(OCC56CCCN5CCC6)nc4c3F)c12` [P-0615, 2-(3-(4-((1R,5S)-3,8-diazabicyclo[3.2.1]octan-3-yl)-8-fluoro-2-((tetrahydro-1H-pyrrolizin-7a(5H)-yl)methoxy)quinazolin-7-yl)-1H-indol-4-yl)acetonitrile] are 0.0001 to 10 µM and 10 to 100 µM.
Consider `CNC(=O)CCOc1nc(N2C[C@H]3CC[C@@H](C2)N3)c2ccc(-c3cc(O)cc4ccccc34)c(F)c2n1` [P-0616, 3-((4-((1R,5S)-3,8-diazabicyclo[3.2.1]octan-3-yl)-8-fluoro-7-(3-hydroxynaphthalen-1-yl)quinazolin-2-yl)oxy)-N-methylpropanamide], for which the IC50 fell in the range of 0.0001 to 10 µM in assay [1] and 10 to 100 µM in assay [2].
As for `Oc1cc(-c2ccc3c(N4C[C@H]5CC[C@@H](C4)N5)nc(OCC4CCC4O)nc3c2F)c2ccccc2c1` (stereo partly drawn) [P-0617, 4-(4-((1R,5S)-3,8-diazabicyclo[3.2.1]octan-3-yl)-8-fluoro-2-((2-hydroxycyclobutyl)methoxy)quinazolin-7-yl)naphthalen-2-ol], the IC50 lay within 0.0001 to 10 µM in assay [1] and 10 to 100 µM in assay [2].
On to `CC(C)(CN)COc1nc(N2C[C@H]3CC[C@@H](C2)N3)c2ccc(-c3cc(O)cc4ccccc34)c(F)c2n1` [P-0618, 4-(2-(3-amino-2,2-dimethylpropoxy)-4-((1R,5S)-3,8-diazabicyclo[3.2.1]octan-3-yl)-8-fluoroquinazolin-7-yl)naphthalen-2-ol], for which the values for the IC50 in assay [1] and in assay [2] were 0.0001 to 10 µM and 10 to 100 µM, respectively.
The like results for `CC(C)(COc1nc(N2C[C@H]3CC[C@@H](C2)N3)c2ccc(-c3cc(O)cc4ccccc34)c(F)c2n1)NC(N)=O` [P-0619, 1-(1-((4-((1R,5S)-3,8-diazabicyclo[3.2.1]octan-3-yl)-8-fluoro-7-(3-hydroxynaphthalen-1-yl)quinazolin-2-yl)oxy)-2-methylpropan-2-yl)urea] were, in that order, 0.0001 to 10 µM and 10 to 100 µM.
As for `CC(C)(COc1nc(N2C[C@H]3CC[C@@H](C2)N3)c2ccc(-c3cc(O)cc4ccccc34)c(F)c2n1)C(N)=O` [P-0620, 3-((4-((1R,5S)-3,8-diazabicyclo[3.2.1]octan-3-yl)-8-fluoro-7-(3-hydroxynaphthalen-1-yl)quinazolin-2-yl)oxy)-2,2-dimethylpropanamide], the IC50 in assay [1] fell in the range of 0.0001 to 10 µM; in assay [2] it was 10 to 100 µM.
